Assay results: US20050191359A1, “Water soluble nanoparticles and method for their production” (SoluBest Ltd., priority 2001, published 2005)

Tests used:
[1] = Solubility of erythromycin alone and as nano-dispersion with modified starch; assay type: physicochemical
[2] = rats, same oral dose of 150 mg/kg; cited from earlier work
Micrococcus luteus = assay: In vitro microbiological activity, agar petri-dish filter-disc test (zones of bacteriostatic activity versus time); assay type: cell-based; conditions: identical concentrations of drug; observed until 216 hours post-application
Experimental: The microbiological activity of various concentrations of water-soluble complexes of clarithromycin prepared in Example 3 was tested on the bacterium Micrococcus luteus, which is sensitive to macrolide antibiotics, and compared to uncomplexed commercial clarithromycin using well-known agar-filled petri-dish tests. Small filter paper cut discs were impregnated with two different solution concentrations (100 or 1,000 μ/ml) of the tested antibiotics. Diameters of the zones pf bacteriostatic activity were measured versus time. […] It was also observed that the difference in microbiological activity for complexed clarithromycin having concentration differences of an order of magnitude between them is vastly greater than the corresponding differences noted with uncomplexed clarithromycin.

solubility of the original drug in water [1] [%]	SMILES	AUC0-24 hours, published data [2] [µg·h/mL]	time until which antibacterial activity continued (Micrococcus luteus)
0.2	CC[C@H]1OC(=O)[C@H](C)[C@@H](O[C@H]2C[C@@](C)(OC)[C@@H](O)[C@H](C)O2)[C@H](C)[C@@H](O[C@@H]2O[C@H](C)C[C@H](N(C)C)[C@H]2O)[C@](C)(O)C[C@@H](C)C(=O)[C@H](C)[C@@H](O)[C@]1(C)O [Erythromycin, erythromycin]		
	CC[C@H]1OC(=O)[C@H](C)[C@@H](O[C@H]2C[C@@](C)(OC)[C@@H](O)[C@H](C)O2)[C@H](C)[C@@H](O[C@@H]2O[C@H](C)C[C@H](N(C)C)[C@H]2O)[C@](C)(OC)C[C@@H](C)C(=O)[C@H](C)[C@@H](O)[C@]1(C)O [commercial clarithromycin, clarithromycin]	32.54	approximately 48 hours
